Assay results: the NIST ThermoML archive (doi:10.1016/j.jct.2014.09.009)
± gives the expanded uncertainty stated by the source.

Columns and labels:
[1] = 298.15 K; 101.33 kPa; Liquid; Vibrating tube method
[2] = refractive index (Na D-line) (dimensionless); conditions: 298.15 K; 101.33 kPa; Liquid; Standard Abbe refractometry

Compound	mass density [1] [kg/m3]	refractive index [2]
COS(=O)(=O)[O-].Cn1cc[n+](C)c1 [1,3-dimethylimidazolium methylsulfate]	1327.3 ± 3.8	1.48276 ± 0.00069
CCCCn1cc[n+](C)c1.COS(=O)(=O)[O-] [1-butyl-3-methylimidazolium methyl sulfate]	1212.3 ± 2.5	1.47948 ± 0.00053
CCn1cc[n+](C)c1.COS(=O)(=O)[O-] [1-ethyl-3-methylimidazolium methylsulfate]	1277.4 ± 2.6	1.479 ± 0.0005
CCCCCCCCCCCC [dodecane]	745.2 ± 2.1	1.41992 ± 0.0004

The remaining lines, values ahead:

mass density [1] [kg/m3]	refractive index [2]	Compound
785.1 ± 2.1	1.35932 ± 0.00035	CCO [ethanol]
894.5 ± 2.1	1.36975 ± 0.00035	CCOC(C)=O [ethyl acetate]
780.9 ± 2.1	1.37499 ± 0.00035	CC(C)O [propan-2-ol]
